Target: T1, sGC α1/β1 heterodimer (Homo sapiens, UniProt Q02108+Q02153)
T1 construct: expressed in transfected cells; host or cells: CHO-K1 (clone #7, CHO-K1/sGC)
T1 sequence (Q02108 1-690): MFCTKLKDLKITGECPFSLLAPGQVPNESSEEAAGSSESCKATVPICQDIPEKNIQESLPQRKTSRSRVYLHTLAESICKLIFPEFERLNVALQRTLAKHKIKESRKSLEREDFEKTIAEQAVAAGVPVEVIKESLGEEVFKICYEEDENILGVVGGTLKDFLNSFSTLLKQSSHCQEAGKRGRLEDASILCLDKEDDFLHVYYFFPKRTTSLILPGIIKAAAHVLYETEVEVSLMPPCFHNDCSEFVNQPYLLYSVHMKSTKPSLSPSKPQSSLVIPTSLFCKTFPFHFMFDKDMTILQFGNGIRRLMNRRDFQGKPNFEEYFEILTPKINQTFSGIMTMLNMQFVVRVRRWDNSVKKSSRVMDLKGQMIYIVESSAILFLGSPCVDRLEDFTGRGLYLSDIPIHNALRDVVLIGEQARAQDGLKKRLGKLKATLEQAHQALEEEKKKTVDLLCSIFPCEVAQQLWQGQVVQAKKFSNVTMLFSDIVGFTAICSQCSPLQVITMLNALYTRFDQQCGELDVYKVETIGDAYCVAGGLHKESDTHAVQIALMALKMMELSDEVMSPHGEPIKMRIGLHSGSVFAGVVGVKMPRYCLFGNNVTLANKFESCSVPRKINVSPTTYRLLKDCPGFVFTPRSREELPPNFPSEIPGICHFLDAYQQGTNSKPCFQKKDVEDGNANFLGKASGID
T1 sequence (Q02153 1-619): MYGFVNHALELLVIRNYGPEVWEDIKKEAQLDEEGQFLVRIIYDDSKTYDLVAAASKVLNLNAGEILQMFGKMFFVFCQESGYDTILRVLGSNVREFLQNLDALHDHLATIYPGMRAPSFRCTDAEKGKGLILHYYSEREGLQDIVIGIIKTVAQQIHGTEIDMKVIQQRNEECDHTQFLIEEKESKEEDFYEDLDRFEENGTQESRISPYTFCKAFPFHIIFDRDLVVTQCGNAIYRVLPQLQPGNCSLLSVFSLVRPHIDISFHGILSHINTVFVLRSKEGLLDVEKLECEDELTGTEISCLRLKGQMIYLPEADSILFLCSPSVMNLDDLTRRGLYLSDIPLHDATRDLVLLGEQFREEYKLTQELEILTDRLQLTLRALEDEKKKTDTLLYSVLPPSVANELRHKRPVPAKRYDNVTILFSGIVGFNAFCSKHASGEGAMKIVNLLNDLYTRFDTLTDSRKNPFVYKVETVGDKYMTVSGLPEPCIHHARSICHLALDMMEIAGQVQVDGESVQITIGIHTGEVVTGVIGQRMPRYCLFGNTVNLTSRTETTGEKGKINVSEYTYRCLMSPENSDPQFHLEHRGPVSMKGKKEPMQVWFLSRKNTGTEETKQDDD
Assay: Cell-based sGC functional assay (CASA assay): cGMP generation in CHO-K1/sGC cells, HTRF detection
Conditions: for Emax: CHO-K1, percent activation relative to standard Compound A in CHO-K1/sGC cells, read-out: % Act.; for EC50: inflection point (IP) of cGMP generation in CHO-K1/sGC cells, 4P fit, activity expressed as percentage of Compound A
Method in brief: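 cGMP was quantified by HTRF after 1 hr, 37° C exposure of thawed CHO-K1 cells expressing sGC α1/β1 to compound, with or without 1 μM DETA-NO. IBMX (0.5 mM) blocked cGMP breakdown, and DMSO was 2.5% final. Percent of standard Compound A's maximal cGMP was fitted (4P) for inflection point.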

Structure (SMILES)	Emax	EC50
CC1(c2ccc(Cl)cn2)C(=O)Nc2nc(-c3cn4c(N)cnc4c(CCC(F)(F)C(F)(F)F)n3)nc(N)c21 (centres unmarked) [Example 269A, 4-amino-2-(3-amino-8-(3,3,4,4,4-pentafluorobutyl)imidazo[1,2-a]pyrazin-6-yl)-5-(5-chloropyridin-2-yl)-5-methyl-5H-pyrrolo[2,3-d]pyrimidin-6(7H)-one]	198%	5090 nM
COc1ccc(C2(C3CC3)C(=O)Nc3nc(-c4cn5ccnc5c(CCC(F)(F)C(F)(F)F)n4)nc(N)c32)cn1 (centres unmarked) [Example 343A, 4-amino-5-cyclopropyl-5-(6-methoxypyridin-3-yl)-2-(8-(3,3,4,4,4-pentafluorobutyl)imidazo[1,2-a]pyrazin-6-yl)-5H-pyrrolo[2,3-d]pyrimidin-6(7H)-one]	121%	46 nM
CC1(c2ccc(F)cc2)C(=O)Nc2nc(-c3cn4cc(C(F)(F)F)nc4c(Cc4ccc(F)cc4)n3)nc(N)c21 (centres unmarked) [Example 155A, 4-amino-2-(8-(4-fluorobenzyl)-2-(trifluoromethyl)imidazo[1,2-a]pyrazin-6-yl)-5-(4-fluorophenyl)-5-methyl-5H-pyrrolo[2,3-d]pyrimidin-6(7H)-one]	112%	130 nM
CCC1(CC)C(=O)Nc2nc(-c3cn4ccnc4c(Cc4ccccc4)n3)nc(N)c21 [Example 79, 4-amino-2-(8-benzylimidazo[1,2-a]pyrazin-6-yl)-5,5-diethyl-5H-pyrrolo[2,3-d]pyrimidin-6(7H)-one]	112%	36 nM
CC(C)Cc1nc(-c2nc(N)c3c(n2)NC(=O)C3(c2ccc(C(F)(F)F)cn2)C2CC2)cn2ccnc12 (centres unmarked) [Example 127A, 4-amino-5-cyclopropyl-2-(8-isobutylimidazo[1,2-a]pyrazin-6-yl)-5-(5-(trifluoromethyl)pyridin-2-yl)-5H-pyrrolo[2,3-d]pyrimidin-6(7H)-one]	105%	518 nM
CC1(C2CC2)C(=O)Nc2nc(-c3cn4ccnc4c(Cc4ccccc4)n3)nc(N)c21 (centres unmarked) [Example 82A, 4-amino-2-(8-benzylimidazo[1,2-a]pyrazin-6-yl)-5-cyclopropyl-5-methyl-5H-pyrrolo[2,3-d]pyrimidin-6(7H)-one]	120%	90 nM
CC1(c2ccc(Cl)cc2)C(=O)Nc2nc(-c3cn4ccnc4cn3)nc(N3CCC(C(F)(F)F)CC3)c21 (centres unmarked) [Example 280A, 5-(4-chlorophenyl)-2-(imidazo[1,2-a]pyrazin-6-yl)-5-methyl-4-(4-(trifluromethyl)piperdin-1-yl)-5H-pyrrolo[2,3-d]pyrimidin-6(7H)-one]	102%	124 nM
CC1(C(=O)NC2CC2)C(=O)Nc2nc(-c3cn4cc(C(F)(F)F)nc4c(Cc4cccc(F)c4F)n3)nc(N)c21 (centres unmarked) [Example 43A, 4-amino-N-cyclopropyl-2-(8-(2,3-difluorobenzyl)-2-(trifluoromethyl)imidazo[1,2-a]pyrazin-6-yl)-5-methyl-6-oxo-6,7-dihydro-5H-pyrrolo[2,3-d]pyrimidine-5-carboxamide]	86%	182 nM
CC1(c2ccc(Cl)cc2)C(=O)Nc2nc(-c3cn4ccnc4cn3)nc(N3CCC(C(F)(F)F)C3)c21 (racemic) [Example 279A, 5-(4-chlorophenyl)-2-(imidazo[1,2-a]pyrazin-6-yl)-5-methyl-4-(3-(trifluoromethyl)pyrrolidin-1-yl)-5H-pyrrolo[2,3-d]pyrimidin-6(7H)-one]	69%	58 nM
CC1(c2ccc(F)cc2)C(=O)Nc2nc(-c3cn4cc(C(F)(F)F)nc4c(Cc4ccc(F)c(F)c4)n3)nc(N)c21 (centres unmarked) [Example 152A, 4-amino-2-(8-(3,4-difluorobenzyl)-2-(trifluoromethyl)imidazo[1,2-a]pyrazin-6-yl)-5-(4-fluorophenyl)-5-methyl-5H-pyrrolo[2,3-d]pyrimidin-6(7H)-one]	129%	43 nM
CC(C)Oc1ccc(C2(C)C(=O)Nc3nc(-c4cn5ccnc5c(CCC(F)(F)C(F)(F)F)n4)nc(N)c32)cn1 (centres unmarked) [Example 241B, 4-amino-5-(6-isopropoxypyridin-3-yl)-5-methyl-2-(8-(3,3,4,4,4-pentafluorobutyl)imidazo [1,2-a]pyrazin-6-yl)-5H-pyrrolo[2,3-d]pyrimidin-6(7H)-one]	99%	58 nM
CC1(c2ccc(F)cc2)C(=O)Nc2nc(-c3cn4cc(C(F)(F)F)nc4c(Cc4cccc(F)c4)n3)nc(N)c21 (centres unmarked) [Example 149A, 4-amino-2-(8-(3-fluorobenzyl)-2-(trifluoromethyl)imidazo[1,2-a]pyrazin-6-yl)-5-(4-fluorophenyl)-5-methyl-5H-pyrrolo[2,3-d]pyrimidin-6(7H)-one]	111%	22 nM
CC1(c2cc(F)cc(F)c2)C(=O)Nc2nc(-c3cn4ccnc4cn3)nc(N)c21 (centres unmarked) [Example 142B, 4-amino-5-(3,5-difluorophenyl)-2-(imidazo[1,2-a]pyrazin-6-yl)-5-methyl-5H-pyrrolo[2,3-d]pyrimidin-6(7H)-one]	166%	667 nM
C[C@@H]1CN(c2nc(-c3cn4ccnc4c(CCC(F)(F)C(F)(F)F)n3)nc3c2C(C)(c2ccc(F)cc2)C(=O)N3)C[C@H](C)O1 (stereo partly drawn) [Example 303A, 4-((2R,6S)-2,6-dimethylmorpholino)-5-(4-fluorophenyl)-5-methyl-2-(8-(3,3,4,4,4-pentafluorobutyl)imidazo[1,2-a]pyrazin-6-yl)-5H-pyrrolo[2,3-d]pyrimidin-6(7H)-one]	101%	425 nM
CCc1ccc(C2(C)C(=O)Nc3nc(-c4cn5ccnc5c(CCC(F)(F)C(F)(F)F)n4)nc(N)c32)nc1 (centres unmarked) [Example 242B, 4-amino-5-(5-ethylpyridin-2-yl)-5-methyl-2-(8-(3,3,4,4,4-pentafluorobutyl)imidazo [1,2-a]pyrazin-6-yl)-5H-pyrrolo[2,3-d]pyrimidin-6(7H)-one]	133%	127 nM
Cc1ccc(C2(C)C(=O)Nc3nc(-c4cn5ccnc5c(CCC(F)(F)C(F)(F)F)n4)nc(N)c32)nn1 (centres unmarked) [Example 252B, 4-amino-5-methyl-5-(6-methylpyridazin-3-yl)-2-(8-(3,3,4,4,4-pentafluorobutyl)imidazo [1,2-a]pyrazin-6-yl)-5H-pyrrolo[2,3-d]pyrimidin-6(7H)-one]	121%	175 nM
CC1(c2ccc(F)cc2)C(=O)Nc2nc(-c3cn4ccnc4c(CCC(F)(F)C(F)(F)F)n3)nc(N3CCCC3)c21 (centres unmarked) [Example 301A, 5-(4-fluorophenyl)-5-methyl-2-(8-(3,3,4,4,4-pentafluorobutyl)imidazo[1,2-a]pyrazin-6-yl)-4-(pyrrolidin-1-yl)-5H-pyrrolo[2,3-d]pyrimidin-6(7H)-one]	116%	317 nM
CC1(c2ccc(Cl)cc2)C(=O)Nc2nc(-c3cn4ccnc4cn3)nc(NCC3CC3)c21 (centres unmarked) [Example 283A, 5-(4-chlorophenyl)-4-((cyclopropylmethyl)amino)-2-(imidazo[1,2-a]pyrazin-6-yl)-5-methyl-5H-pyrrolo[2,3-d]pyrimidin-6(7H)-one]	163%	56 nM
CC(C)C1(c2ccc(Cl)cc2)C(=O)Nc2nc(-c3cn4ccnc4c(CCC(F)(F)F)n3)nc(N)c21 (centres unmarked) [Example 203B, 4-amino-5-(4-chlorophenyl)-5-isopropyl-2-(8-(3,3,3-trifluoropropyl)imidazo[1,2-a]pyrazin-6-yl)-5H-pyrrolo[2,3-d]pyrimidin-6(7H)-one]	115%	1170 nM

Source: patent publication US9796733B2, “Imidazo-pyrazine derivatives useful as soluble guanylate cyclase activators” (Merck Sharp & Dohme Corp., priority 2014, dated 2017)
